From patent publication US9169310B2 (Zealand Pharma A/S, priority 2010, dated 2015)
Read-outs that look alike come from different tables or passages of the source. Starred links: 1 amine or outer side, 2 acyl side, 3 side chain; linkers in the order of their positions; H or OH if unused. Non-standard residues stand in square brackets, D forms with d. Residues, ends and D or L forms follow the SMILES beside them. Groups on a side chain read outwards from the residue. *: point of attachment. γGlu = O=C(O)[C@H](CCC(=O)[*:2])N[*:1]; Palmitoyl = CCCCCCCCCCCCCCCC(=O)*; Aib = CC(C)(N)C(=O)O

Columns and labels:
human glucagon-R = target: T1, human glucagon-R (Homo sapiens, UniProt P47871); assay: Glucagon receptor efficacy assay (cAMP formation, FlashPlate cAMP kit); format: cell-based
T1 construct: expressed in transfected cells
Protocol: (§1) The 5′-end primers additionally encoded a near Kozak consensus sequence to ensure efficient translation.
(§2) 48 hr after transfection, cells were seeded for limited dilution cloning and selected with 1 mg/ml G418 in the culture medium.

human GLP-1R = target: T2, human GLP-1R (Homo sapiens, UniProt P43220); assay: GLP-1 receptor efficacy assay (cAMP formation, FlashPlate cAMP kit); format: cell-based; details: HEK293 cells expressing human GLP-1R; cAMP formed, 15 min at 37° C.
T2 construct: expressed in transfected cells
Protocol: as §1, §2

[1] = HEK293 cells expressing human glucagon-R; cAMP formed, 15 min at 37° C.; read-out: EC50 nM) GluR

T1 sequence (P47871 26-477): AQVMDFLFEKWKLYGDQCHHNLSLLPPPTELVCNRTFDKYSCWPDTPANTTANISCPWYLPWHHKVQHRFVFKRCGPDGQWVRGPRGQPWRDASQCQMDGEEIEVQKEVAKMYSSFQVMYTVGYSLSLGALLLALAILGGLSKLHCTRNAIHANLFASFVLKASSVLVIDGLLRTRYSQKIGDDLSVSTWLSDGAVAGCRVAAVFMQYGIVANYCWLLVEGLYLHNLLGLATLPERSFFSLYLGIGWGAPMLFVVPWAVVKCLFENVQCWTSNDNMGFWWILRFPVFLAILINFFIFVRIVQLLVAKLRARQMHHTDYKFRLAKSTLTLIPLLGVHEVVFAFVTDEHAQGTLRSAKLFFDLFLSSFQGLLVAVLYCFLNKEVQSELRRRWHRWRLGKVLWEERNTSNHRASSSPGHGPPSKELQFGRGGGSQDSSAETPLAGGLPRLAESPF
T2 sequence (P43220 24-463): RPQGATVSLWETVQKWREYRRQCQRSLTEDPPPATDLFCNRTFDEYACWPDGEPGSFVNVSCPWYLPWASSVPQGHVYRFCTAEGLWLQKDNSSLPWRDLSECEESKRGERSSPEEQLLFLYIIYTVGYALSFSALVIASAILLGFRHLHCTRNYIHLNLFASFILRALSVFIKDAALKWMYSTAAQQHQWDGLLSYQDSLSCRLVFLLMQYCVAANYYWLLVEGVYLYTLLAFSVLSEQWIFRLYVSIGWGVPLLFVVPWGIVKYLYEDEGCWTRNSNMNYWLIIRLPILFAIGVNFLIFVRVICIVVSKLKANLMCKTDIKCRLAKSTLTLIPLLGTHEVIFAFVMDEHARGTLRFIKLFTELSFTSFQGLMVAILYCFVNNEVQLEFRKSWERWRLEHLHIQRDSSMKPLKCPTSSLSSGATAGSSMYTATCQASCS

EC50 (human glucagon-R; [1]) [nM] | EC50 (human GLP-1R) [nM] | EC50 (human glucagon-R; earlier determination, replaced by redetermination in Table 1, read-out: EC50 GluR, earlier determined value) [nM] | Compound
0.15 | 0.16 |  | CCCCCCCCCCCCCCCC(=O)N[C@@H](CCC(=O)NCCCC[C@H](NC(=O)[C@H](CO)NC(=O)[C@H](CC(=O)O)NC(=O)[C@H](CC(C)C)NC(=O)[C@H](Cc1ccc(O)cc1)NC(=O)[C@H](CCCCN)NC(=O)[C@H](CO)NC(=O)[C@H](Cc1ccc(O)cc1)NC(=O)[C@H](CC(=O)O)NC(=O)[C@H](CO)NC(=O)[C@@H](NC(=O)[C@H](Cc1ccccc1)NC(=O)[C@@H](NC(=O)CNC(=O)[C@H](Cc1c[nH]cn1)NC(=O)C(C)(C)NC(=O)[C@@H](N)Cc1c[nH]cn1)[C@@H](C)O)[C@@H](C)O)C(=O)N[C@@H](C)C(=O)N[C@@H](C)C(=O)N[C@@H](Cc1c[nH]cn1)C(=O)N[C@@H](CCC(=O)O)C(=O)N[C@@H](Cc1ccccc1)C(=O)N[C@H](C(=O)N[C@@H](CCC(=O)O)C(=O)N[C@@H](Cc1c[nH]c2ccccc12)C(=O)N[C@@H](CC(C)C)C(=O)N[C@@H](CC(C)C)C(=O)N[C@@H](CCC(=O)O)C(=O)N[C@@H](C)C(N)=O)C(C)C)C(=O)O [Compound 5] (H-H[Aib]HGTFTSDYSKYLDSK([γGlu-Palmitoyl])AAHEFVEWLLEA-NH2)
26 |  |  | CCCCCCCCCCCCCCCC(=O)N[C@@H](CCC(=O)NCCCC[C@H](NC(=O)[C@H](CO)NC(=O)[C@H](CC(=O)O)NC(=O)[C@H](CC(C)C)NC(=O)[C@H](Cc1ccc(O)cc1)NC(=O)[C@H](CCCCN)NC(=O)[C@H](CO)NC(=O)[C@H](Cc1ccc(O)cc1)NC(=O)[C@H](CC(=O)O)NC(=O)[C@H](CO)NC(=O)[C@@H](NC(=O)[C@H](Cc1ccccc1)NC(=O)[C@@H](NC(=O)CNC(=O)[C@H](CCC(=O)O)NC(=O)C(C)(C)NC(=O)[C@@H](N)Cc1c[nH]cn1)[C@@H](C)O)[C@@H](C)O)C(=O)N[C@@H](C)C(=O)N[C@@H](C)C(=O)N[C@@H](Cc1c[nH]cn1)C(=O)N[C@@H](CC(=O)O)C(=O)N[C@@H](Cc1ccccc1)C(=O)N[C@H](C(=O)N[C@@H](CCC(=O)O)C(=O)N[C@@H](Cc1c[nH]c2ccccc12)C(=O)N[C@@H](CC(C)C)C(=O)N[C@@H](CC(C)C)C(=O)N[C@@H](CO)C(=O)N[C@@H](C)C(N)=O)C(C)C)C(=O)O [Compound 7] (H-H[Aib]EGTFTSDYSKYLDSK([γGlu-Palmitoyl])AAHDFVEWLLSA-NH2)
3 |  |  | CCCCCCCCCCCCCCCC(=O)N[C@@H](CCC(=O)NCCCC[C@H](NC(=O)[C@H](CO)NC(=O)[C@H](CC(=O)O)NC(=O)[C@H](CC(C)C)NC(=O)[C@H](Cc1ccc(O)cc1)NC(=O)[C@H](CCCCN)NC(=O)[C@H](CO)NC(=O)[C@H](Cc1ccc(O)cc1)NC(=O)[C@H](CC(=O)O)NC(=O)[C@H](CO)NC(=O)[C@@H](NC(=O)[C@H](Cc1ccccc1)NC(=O)[C@@H](NC(=O)[C@H](C)NC(=O)[C@H](CCC(N)=O)NC(=O)C(C)(C)NC(=O)[C@@H](N)Cc1c[nH]cn1)[C@@H](C)O)[C@@H](C)O)C(=O)N[C@@H](C)C(=O)N[C@@H](C)C(=O)N[C@@H](Cc1c[nH]cn1)C(=O)N[C@@H](CC(=O)O)C(=O)N[C@@H](Cc1ccccc1)C(=O)N[C@H](C(=O)N[C@@H](CCC(=O)O)C(=O)N[C@@H](Cc1c[nH]c2ccccc12)C(=O)N[C@@H](CC(C)C)C(=O)N[C@@H](CC(C)C)C(=O)N[C@@H](CO)C(=O)N[C@@H](C)C(N)=O)C(C)C)C(=O)O [Compound 8] (H-H[Aib]QATFTSDYSKYLDSK([γGlu-Palmitoyl])AAHDFVEWLLSA-NH2)
3 |  |  | CCCCCCCCCCCCCCCC(=O)N[C@@H](CCC(=O)NCCCC[C@H](NC(=O)[C@H](CO)NC(=O)[C@H](CC(=O)O)NC(=O)[C@H](CC(C)C)NC(=O)[C@H](Cc1ccc(O)cc1)NC(=O)[C@H](CCCCN)NC(=O)[C@H](CO)NC(=O)[C@H](Cc1ccc(O)cc1)NC(=O)[C@H](CC(=O)O)NC(=O)[C@H](CO)NC(=O)[C@@H](NC(=O)[C@H](Cc1ccccc1)NC(=O)[C@@H](NC(=O)CNC(=O)[C@@H](NC(=O)C(C)(C)NC(=O)[C@@H](N)Cc1c[nH]cn1)C(C)C)[C@@H](C)O)[C@@H](C)O)C(=O)N[C@@H](C)C(=O)N[C@@H](C)C(=O)N[C@@H](Cc1c[nH]cn1)C(=O)N[C@@H](CC(=O)O)C(=O)N[C@@H](Cc1ccccc1)C(=O)N[C@H](C(=O)N[C@@H](CCC(=O)O)C(=O)N[C@@H](Cc1c[nH]c2ccccc12)C(=O)N[C@@H](CC(C)C)C(=O)N[C@@H](CC(C)C)C(=O)N[C@@H](CO)C(=O)N[C@@H](C)C(N)=O)C(C)C)C(=O)O [Compound 16] (H-H[Aib]VGTFTSDYSKYLDSK([γGlu-Palmitoyl])AAHDFVEWLLSA-NH2)
 | 0.16 | 3 | CCCCCCCCCCCCCCCC(=O)N[C@@H](CCC(=O)NCCCC[C@H](NC(=O)[C@H](CO)NC(=O)[C@H](CC(=O)O)NC(=O)[C@H](CC(C)C)NC(=O)[C@H](Cc1ccc(O)cc1)NC(=O)[C@H](CCCCN)NC(=O)[C@H](CO)NC(=O)[C@H](Cc1ccc(O)cc1)NC(=O)[C@H](CC(=O)O)NC(=O)[C@H](CO)NC(=O)[C@@H](NC(=O)[C@H](Cc1ccccc1)NC(=O)[C@@H](NC(=O)CNC(=O)[C@@H](NC(=O)C(C)(C)NC(=O)[C@@H](N)Cc1c[nH]cn1)[C@@H](C)CC)[C@@H](C)O)[C@@H](C)O)C(=O)N[C@@H](C)C(=O)N[C@@H](C)C(=O)N[C@@H](Cc1c[nH]cn1)C(=O)N[C@@H](CC(=O)O)C(=O)N[C@@H](Cc1ccccc1)C(=O)N[C@H](C(=O)N[C@@H](CCC(=O)O)C(=O)N[C@@H](Cc1c[nH]c2ccccc12)C(=O)N[C@@H](CC(C)C)C(=O)N[C@@H](CC(C)C)C(=O)N[C@@H](CO)C(=O)N[C@@H](C)C(N)=O)C(C)C)C(=O)O [Compound 19] (H-H[Aib]IGTFTSDYSKYLDSK([γGlu-Palmitoyl])AAHDFVEWLLSA-NH2)
26 | 0.21 |  | CCCCCCCCCCCCCCCC(=O)N[C@@H](CCC(=O)NCCCC[C@H](NC(=O)[C@H](CO)NC(=O)[C@H](CC(=O)O)NC(=O)[C@H](CC(C)C)NC(=O)[C@H](Cc1ccc(O)cc1)NC(=O)[C@H](CCCCN)NC(=O)[C@H](CO)NC(=O)[C@H](Cc1ccc(O)cc1)NC(=O)[C@H](CC(=O)O)NC(=O)[C@H](CO)NC(=O)[C@@H](NC(=O)[C@H](Cc1ccccc1)NC(=O)[C@@H](NC(=O)CNC(=O)CNC(=O)C(C)(C)NC(=O)[C@@H](N)Cc1c[nH]cn1)[C@@H](C)O)[C@@H](C)O)C(=O)N[C@@H](C)C(=O)N[C@@H](C)C(=O)N[C@@H](Cc1c[nH]cn1)C(=O)N[C@@H](CC(=O)O)C(=O)N[C@@H](Cc1ccccc1)C(=O)N[C@H](C(=O)N[C@@H](CCC(=O)O)C(=O)N[C@@H](Cc1c[nH]c2ccccc12)C(=O)N[C@@H](CC(C)C)C(=O)N[C@@H](CC(C)C)C(=O)N[C@@H](CO)C(=O)N[C@@H](C)C(N)=O)C(C)C)C(=O)O [Compound 20] (H-H[Aib]GGTFTSDYSKYLDSK([γGlu-Palmitoyl])AAHDFVEWLLSA-NH2)
0.15 | 0.09 |  | CCCCCCCCCCCCCCCC(=O)N[C@@H](CCC(=O)NCCCC[C@H](NC(=O)[C@H](CO)NC(=O)[C@H](CCC(=O)O)NC(=O)[C@H](CC(C)C)NC(=O)[C@H](Cc1ccc(O)cc1)NC(=O)[C@H](CCCCN)NC(=O)[C@H](CO)NC(=O)[C@H](Cc1ccc(O)cc1)NC(=O)[C@H](CC(=O)O)NC(=O)[C@H](CO)NC(=O)[C@@H](NC(=O)[C@H](Cc1ccccc1)NC(=O)[C@@H](NC(=O)CNC(=O)[C@H](Cc1c[nH]cn1)NC(=O)C(C)(C)NC(=O)[C@@H](N)Cc1c[nH]cn1)[C@@H](C)O)[C@@H](C)O)C(=O)N[C@@H](C)C(=O)N[C@@H](C)C(=O)N[C@@H](CCC(=O)O)C(=O)N[C@@H](CCC(=O)O)C(=O)N[C@@H](Cc1ccccc1)C(=O)N[C@H](C(=O)N[C@@H](CCC(=O)O)C(=O)N[C@@H](Cc1c[nH]c2ccccc12)C(=O)N[C@@H](CC(C)C)C(=O)N[C@@H](CC(C)C)C(=O)N[C@@H](CCC(=O)O)C(=O)N[C@@H](C)C(N)=O)C(C)C)C(=O)O [Compound 31] (H-H[Aib]HGTFTSDYSKYLESK([γGlu-Palmitoyl])AAEEFVEWLLEA-NH2)
